Data published in patent US9399649B2, “Compounds for treating spinal muscular atrophy” (PTC Therapeutics Inc., priority 2012, dated 2016).

Test system: full length and Δ7 SMN2 mRNA
Assay: Endogenous SMN2 mRNA end-point semi-quantitative RT-PCR splicing assay in cultured cells
Type: cell-based, human
Conditions: Type 1 SMA patient fibroblasts (GM03813), increasing concentrations, 24 hr, FIG. 5
Description: The endpoint reverse transcription-PCR splicing assay is used to visualize and quantify the levels of the full length and Δ7 SMN2 mRNA in primary cells and cell lines containing the SMN2 gene treated with a test compound.
GM03813 SMA patient cells (5,000 cells/well) are seeded in 200 μL of cell culture medium (DMEM plus 10% FBS) in 96-well flat-bottom plates and the plate is immediately swirled to ensure proper dispersal of cells, forming an even monolayer of cells. Cells are allowed to attach for at least 4-6 hrs. Test compounds are serially diluted 3.16-fold in 100% DMSO to generate a 7-point concentration curve. A solution of test compound (1 μL, 200× in DMSO) is added to each test well and 1 μL DMSO is added to each control well. The plate is incubated for 24 hrs in a cell culture incubator (37° C., 5% CO2, 100% relative humidity). The cells are then lysed in Cells-To-Ct lysis buffer and the lysate is stored at 80° C.
SMN FL and Δ7 mRNA are identified using the following primers in Table 6. These primers hybridize to a nucleotide sequence in exon 6 (SMN Forward C, SEQ ID NO. 11) (nucleotide 43 to nucleotide 63) and exon 8 (SMN Reverse C, SEQ ID NO. 12) (nucleotide 51 to nucleotide 73) common to human SMN1 and SMN2 mRNA. Since the SMA patient cells used in Example 4 contain only the SMN2 gene, RT-PCR can visualize and quantify only SMN2 full-length and SMN2 Δ7 mRNA.
To synthesize cDNA, 5 μL of lysate, 4 μL of 5× iScript reaction mix, 1 μL of reverse transcriptase, and 10 μL of water are combined and incubated 5 min at 25° C. followed by 30 min at 42° C., followed by 5 min at 85° C. The cDNA solution is stored at −20° C.
To perform endpoint PCR, 5 μL of cDNA, 0.2 μL of 100 μM forward primer, 0.2 μL of 100 μM reverse primer, and 22.5 μL of polymerase super mix are combined in a 96 well semiskirted PCR plate. PCR is carried out at the following temperatures for the indicated time: Step 1: 94° C. (2 min), Step 2: 94° C. (30 sec), Step 3: 55° C. (30 sec), Step 4: 68° C. (1 min), then repeat Steps 2 to 4 for a total of 33 cycles, then hold at 4° C.
10 μL of each PCR sample is electrophoretically separated on a 2% agarose E-gel for 14 minutes stained with double-stranded DNA (dsDNA) staining reagents (e.g., ethidium bromide) and visualized using a gel imager.

Row | SMILES | SMN2 FL mRNA (gel band) | SMN2 Δ7 mRNA (gel band)
1 | Cc1cn2cc(-c3cc4ccc(N5CCN(C)CC5)cc4c(=O)o3)nc2c(C)n1 [Cpd 65, 3-(6,8-dimethylimidazo[1,2-a]pyrazin-2-yl)-7-(4-methylpiperazin-1-yl)-1H-isochromen-1-one] | progressively more SMN2 FL mRNA | less SMN2 Δ7 mRNA
2 | Cc1cn2cc(-c3cc4ccc(N5CCN6CCC[C@H]6C5)cc4c(=O)o3)nc2c(C)n1 [Cpd 69, 3-(6,8-dimethylimidazo[1,2-a]pyrazin-2-yl)-7-[(8aS)-hexahydropyrrolo[1,2-a]pyrazin-2(1H)-yl]-1H-isochromen-1-one] | progressively more SMN2 FL mRNA | less SMN2 Δ7 mRNA
